According to patent US12509446B2, “FYN and VEGFR2 kinase inhibitors” (ROTTAPHARM BIOTECH S.R.L., priority 2019, dated 2025):
pIC50: −log10 of the molar value.

Key:
Fyn = Fyn (Homo sapiens (Human), UniProt P06241); assay: Z′-LYTE in vitro Fyn kinase activity assay; assay type: biochemical; conditions: ATP 50 μM; read-out: FYN KINASE INHIBITION IC50
Method in brief: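 Z′-LYTE FRET format with full-length active Fyn in 50 mM Hepes pH 7.5, 10 mM MgCl2, 1 mM EGTA, 0.01% Brij-35, 1% DMSO final; 60 minutes at 25° C. Percent phosphorylation from 0% and 100% phosphorylation controls; IC50 by non-linear curve fitting of percent inhibition.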

VEGFR2 = VEGFR2 (Homo sapiens (Human), UniProt P35968); assay: In vitro VEGFR2 kinase activity assay (Eurofins Cerep); assay type: biochemical; conditions: read-out: VEGFR2 KINASE INHIBITION IC50
Sequence of VEGFR2 (P35968 20-1356): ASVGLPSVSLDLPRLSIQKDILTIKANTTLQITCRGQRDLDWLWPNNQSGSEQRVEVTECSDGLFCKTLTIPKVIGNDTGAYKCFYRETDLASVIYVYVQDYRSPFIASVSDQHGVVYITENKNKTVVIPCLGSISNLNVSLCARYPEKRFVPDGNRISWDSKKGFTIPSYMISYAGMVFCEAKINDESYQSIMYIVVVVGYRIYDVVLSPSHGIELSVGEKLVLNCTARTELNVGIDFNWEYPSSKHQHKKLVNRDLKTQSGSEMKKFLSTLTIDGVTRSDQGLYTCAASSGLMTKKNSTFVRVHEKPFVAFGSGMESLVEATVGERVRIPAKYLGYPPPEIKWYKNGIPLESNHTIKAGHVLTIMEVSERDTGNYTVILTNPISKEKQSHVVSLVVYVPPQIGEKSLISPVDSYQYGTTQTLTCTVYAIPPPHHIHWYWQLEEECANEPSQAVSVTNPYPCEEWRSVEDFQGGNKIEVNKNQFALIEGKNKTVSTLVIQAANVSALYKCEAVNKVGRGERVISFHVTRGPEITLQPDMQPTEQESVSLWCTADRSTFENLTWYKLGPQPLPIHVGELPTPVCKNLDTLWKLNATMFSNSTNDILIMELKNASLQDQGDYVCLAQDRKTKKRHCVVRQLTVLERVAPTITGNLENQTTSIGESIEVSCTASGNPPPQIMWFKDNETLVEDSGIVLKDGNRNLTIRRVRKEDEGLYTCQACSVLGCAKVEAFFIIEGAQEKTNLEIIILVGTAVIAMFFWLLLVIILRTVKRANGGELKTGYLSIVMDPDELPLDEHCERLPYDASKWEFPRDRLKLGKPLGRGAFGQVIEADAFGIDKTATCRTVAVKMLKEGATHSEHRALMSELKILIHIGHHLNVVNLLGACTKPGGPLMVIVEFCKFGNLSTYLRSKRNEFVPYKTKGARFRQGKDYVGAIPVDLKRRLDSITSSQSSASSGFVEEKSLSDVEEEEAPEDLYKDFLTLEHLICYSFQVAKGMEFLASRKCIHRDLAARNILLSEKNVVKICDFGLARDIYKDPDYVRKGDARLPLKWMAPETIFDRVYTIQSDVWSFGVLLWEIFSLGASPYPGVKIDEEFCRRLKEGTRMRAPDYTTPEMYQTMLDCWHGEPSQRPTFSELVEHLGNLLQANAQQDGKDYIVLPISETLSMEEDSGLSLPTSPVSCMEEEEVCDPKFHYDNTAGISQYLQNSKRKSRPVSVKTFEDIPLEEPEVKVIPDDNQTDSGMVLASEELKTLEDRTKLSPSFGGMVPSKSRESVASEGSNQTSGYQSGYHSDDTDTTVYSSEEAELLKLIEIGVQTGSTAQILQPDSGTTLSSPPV
Method in brief: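 Contract biochemical kinase assay on human VEGFR2 with inhibitors at 10^−8 to 10^−5 M final (some re-tested from 10^−9 M). Activity expressed as percent of no-compound control; IC50 by non-linear regression of mean replicate inhibition curves.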

NF-kB = assay: Gene reporter (GR) assay, NF-kB activation after TNFα in JB6 Cl 41-5a (P+) cells; assay type: cell-based, murine; conditions: Mus musculus, JB6 Cl 41-5a, TNFα 2 ng/ml, non toxic concentrations; read-out: Gene reporter (GR) inhibition IC50
Method in brief: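 Murine JB6 Cl 41-5a (P+) cells stably carrying an NF-kB-RE luc2P reporter were pre-treated with compound for 1 h, then stimulated with 2 ng/ml TNFα for 4 h. Luciferase read-out with a paired viability read; quadruplicates.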

IL-1β = assay: Gene expression in rat articular chondrocytes under IL-1β stimulation, IL-1β; assay type: cell-based; conditions: for IL-1β gene expression, percentage of inhibitory effect at the highest non toxic concentration: 6 h; for pIC50: Rattus norvegicus, Chondrocyte, 6 h incubation
Procedure: (§1) For gene expression analysis, 10 days after plating, the medium was changed and substituted with DMEM GlutaMAX I 0.4% to synchronize the cells. The cells were then co-treated in DMEM GlutaMAX I 0.4% with different concentrations of the test compounds and […] at a final concentration of 2 ng/ml for 6 h and 24 h. The test compound concentrations used have been chosen on the basis of the toxicity data.
(§2) At the end of the incubation, the supernatant was discarded, the cell were washed with cold PBS1X and scraped with 200 μl of RNA lysis buffer 1X (Nucleic Acid Purification Lysis Solution, Applied Biosystems).
(§3) Total RNA was purified using ABI Prism™ 6100 Nucleic Acid PrepStation (Applied Biosystems) following manufacturer's instructions.
(§4) Total RNA was retrotranscribed using the High-Capacity cDNA Archive Kit (Applied Biosystems-Thermo Fisher Scientific) following manufacturer's instructions.
(§5) The specific probes and primers for RealTime PCR were from Applied Biosystems (Thermo Fisher Scientific) as Assays-on-Demand™, while the probe and primers for the endogenous control 18S was a PDAR (Pre-Developed TaqMan® Assay Reagents—Applied Biosystems-Thermo Fisher Scientific).
(§6) The assays were designed to amplify target cDNA without amplifying genomic DNA.
(§7) Gene expression analysis for IL-1β, IL-6 and ADAMTS-5 were performed at 6 h incubation, while the gene expression analysis for MMP3, MMP13 and COX2 were performed at 24 h incubation.
(§8) For each compound the maximal concentration tested was dependent on the toxicity results obtained on primary rat chondrocytes.
(§9) The data analysis, with the normalisation on the amplified values for the 18S was done following the specific instruction of Applied Biosystems for the relative quantification of gene expression.

IL-6 = assay: Gene expression in rat articular chondrocytes under IL-1β stimulation, IL-6; assay type: cell-based; conditions: 6 h
Procedure: as §1, §2, §3, §4, §5, §6, §7, §8, §9

COX2 = assay: Gene expression in rat articular chondrocytes under IL-1β stimulation, COX2; assay type: cell-based; conditions: for COX2 gene expression, percentage of inhibitory effect at the highest non toxic concentration: 24 h
ADAMTS-5 = assay: Gene expression in rat articular chondrocytes under IL-1β stimulation, ADAMTS-5; assay type: cell-based; conditions: for ADAMTS-5 gene expression, percentage of inhibitory effect at the highest non toxic concentration: 6 h; for pIC50: Rattus norvegicus, Chondrocyte, 6 h incubation
Procedure: as §1, §2, §3, §4, §5, §6, §7, §8, §9

MMP3 = assay: Gene expression in rat articular chondrocytes under IL-1β stimulation, MMP3; assay type: cell-based; conditions: for MMP3 gene expression, percentage of inhibitory effect at the highest non toxic concentration: 24 h; for pIC50: Rattus norvegicus, Chondrocyte, 24 h incubation
Procedure: as §1, §2, §3, §4, §5, §6, §7, §8, §9

MMP13 = assay: Gene expression in rat articular chondrocytes under IL-1β stimulation, MMP13; assay type: cell-based; conditions: for MMP13 gene expression, percentage of inhibitory effect at the highest non toxic concentration: 24 h
Procedure: as §1, §2, §3, §4, §5, §6, §7, §8, §9

[1] = system: bovine nasal septum cartilage; assay: Inhibition of cartilage degradation (GAG release) induced by IL-1α in a bovine in vitro model; assay type: cell-based
Procedure: Nasal septum cartilage was collected from an eight months-old male bovine in a local slaughterhouse.
Tissue was sprayed with ethanol 70% and immediately put in sterile PBS with Antibiotic-Antimycotic stabilized solution (PBS-AASS). It was cut in order to obtain small punches (diameter 2 mm, 1 mm-thick). washed with sterile PBS-AASS, the slices were transferred in a 96X well plate (one piece per well) in DMEM 10%+AASS. 48 h later the cartilage was stimulated in white DMEM+0.1% BSA+AASS with IL-1α […] in the absence or presence of the studied compounds.
The compounds concentration used in this analysis was chosen depending on the toxicity results obtained in rat primary chondrocytes at 48 h of incubation.
After 48 h stimulation, the culture medium was collected and stored at −80° C. The cartilage punches were digested with papain at 65° C. for 2 h in phosphate buffer (0.05M pH 6.5 with 2 mM N-acetil-L-cisteine and 2 mM EDTA).
The glycosaminoglycan (GAG) determination was done by a colorimetric assay with 1,9 dimethyl methylene blue (DMB).
Digested cartilage samples were diluted in PBS-BSA 1%. To 100 μl of diluted samples or standard we added 100 μl DMB 2X. After 5-20 min incubation the samples were read at 590 nm (Titertek Multiscan Plus).
The cartilage degradation induced by IL-1α was expressed as: GAG (medium)/total GAG (medium+cartilage)×100

[2] = system: rat primary articular chondrocytes; assay: Toxicity analysis (MTT) in rat primary chondrocytes; conditions: for First toxic concentration at 24 h: rat primary chondrocytes
[3] = Bos taurus, read-out: Bovine cartilage degradation induced by IL-1α, % inhibitory effect at max concentration
[4] = Rattus norvegicus, Chondrocyte, 24 h incubation

Sequence of Fyn (P06241 whole entry): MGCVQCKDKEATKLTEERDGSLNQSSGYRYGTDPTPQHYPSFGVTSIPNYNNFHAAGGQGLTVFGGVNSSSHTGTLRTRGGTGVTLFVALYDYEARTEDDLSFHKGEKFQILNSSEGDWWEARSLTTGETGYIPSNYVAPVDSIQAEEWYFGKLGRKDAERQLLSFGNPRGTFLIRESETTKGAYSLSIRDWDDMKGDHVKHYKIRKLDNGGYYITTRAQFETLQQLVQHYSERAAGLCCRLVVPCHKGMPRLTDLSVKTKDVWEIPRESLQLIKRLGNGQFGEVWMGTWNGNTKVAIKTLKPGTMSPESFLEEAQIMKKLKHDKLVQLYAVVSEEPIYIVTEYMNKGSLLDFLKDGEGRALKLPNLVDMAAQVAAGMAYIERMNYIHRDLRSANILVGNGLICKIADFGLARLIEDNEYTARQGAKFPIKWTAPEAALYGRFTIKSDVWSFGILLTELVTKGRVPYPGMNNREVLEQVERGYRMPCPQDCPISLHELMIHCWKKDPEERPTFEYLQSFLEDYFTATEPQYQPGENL

| Structure (SMILES) | pIC50 (Fyn) | pIC50 (VEGFR2) | pIC50 (NF-kB) | IL-6 gene expression, percentage of inhibitory effect at the highest non toxic concentration (IL-6; 3 μM) | inhibition at 3 µM [1, 3] [%] | First toxic concentration at 48 h in rat primary chondrocytes [2] [µM] | First toxic concentration at 24 h [2] [µM] | pIC50 (IL-1β) | pIC50 (ADAMTS-5) | pIC50 (MMP3) | IL-1β gene expression, percentage of inhibitory effect at the highest non toxic concentration (IL-1β; 10 μM) | IL-6 gene expression, percentage of inhibitory effect at the highest non toxic concentration (IL-6; 10 μM) | COX2 gene expression, percentage of inhibitory effect at the highest non toxic concentration (COX2; 10 μM) | ADAMTS-5 gene expression, percentage of inhibitory effect at the highest non toxic concentration (ADAMTS-5; 10 μM) | MMP3 gene expression, percentage of inhibitory effect at the highest non toxic concentration (MMP3; 10 μM) | MMP13 gene expression, percentage of inhibitory effect at the highest non toxic concentration (MMP13; 10 μM) | inhibition at 10 µM [1, 3] [%] | other results |
| --- | --- | --- | --- | --- | --- | --- | --- | --- | --- | --- | --- | --- | --- | --- | --- | --- | --- | --- |
| Cc1cnc(Nc2cc(CCc3cc(NC(=O)c4cccc(C(F)(F)F)c4)ccc3F)n[nH]2)c(C)n1 [Compound 14, N-(3-(2-(5-((3,5-dimethylpyrazin-2-yl)amino)-1H-pyrazol-3-yl)ethyl)-4-fluorophenyl)-3-(trifluoromethyl)benzamide] | 7.51 | 8.00 | 6.31 | 3 μM 100% | 97 | 10 | 10 | – | – | – | – | – | – | – | – | – | – | IL-1β gene expression, percentage of inhibitory effect at the highest non toxic concentration (IL-1β; 3 μM): 3 μM 99%; COX2 gene expression, percentage of inhibitory effect at the highest non toxic concentration (COX2; 3 μM): 3 μM 100%; ADAMTS-5 gene expression, percentage of inhibitory effect at the highest non toxic concentration (ADAMTS-5; 3 μM): 3 μM 99%; MMP3 gene expression, percentage of inhibitory effect at the highest non toxic concentration (MMP3; 3 μM): 3 μM 95%; MMP13 gene expression, percentage of inhibitory effect at the highest non toxic concentration (MMP13; 3 μM): 3 μM 99% |
| Cc1ccc(NC(=O)c2cccc(C(F)(F)F)c2)cc1CCc1cc(NC(=O)c2ccc(F)cc2)[nH]n1 [Compound 19, N-(3-(2-(3-(4-fluorobenzamido)-1H-pyrazol-5-yl)ethyl)-4-methylphenyl)-3-(trifluoromethyl)benzamide] | 7.16 | 6.96 | 6.05 | 3 μM 99% | 83 | 10 | 10 | 7.00 | 7.00 | 6.22 | – | – | – | – | – | – | – | pIC50 (COX2; [4]): 6.40; pIC50 (MMP13; [4]): 6.30 |
| CCN1Cc2cnc(Nc3cc(CCc4cc(NC(=O)c5cccc(C(F)(F)F)c5)ccc4C)n[nH]3)cc2C1 [Compound 17, N-(3-(2-(5-((2-ethyl-2,3-dihydro-1H-pyrrolo[3,4-c]pyridin-6-yl)amino)-1H-pyrazol-3-yl)ethyl)-4-methylphenyl) -3-(trifluoromethyl)benzamide] | 8.10 | > 8.00 | 6.45 | – | – | >10 | >10 | – | – | – | 10 μM 99% | 10 μM 100% | 10 μM 96% | 10 μM 62% | 10 μM 92% | 10 μM 100% | 100 | – |
| O=C(Nc1ccc(F)c(CCc2cc(Nc3cnccn3)[nH]n2)c1)c1cccc(C(F)(F)F)c1 [Compound 13, N-(4-fluoro-3-(2-(5-(pyrazin-2-ylamino)-1H-pyrazol-3-yl)ethyl)phenyl)-3-(trifluoromethyl) benzamide] | 7.59 | > 8.00 | 6.51 | – | – | 3 | 3 | – | – | 6.52 | – | – | – | – | – | – | – | IL-1β gene expression, percentage of inhibitory effect at the highest non toxic concentration (IL-1β; 1 μM): 1 μM 96%; IL-6 gene expression, percentage of inhibitory effect at the highest non toxic concentration (IL-6; 1 μM): 1 μM 100%; COX2 gene expression, percentage of inhibitory effect at the highest non toxic concentration (COX2; 1 μM): 1 μM 96%; ADAMTS-5 gene expression, percentage of inhibitory effect at the highest non toxic concentration (ADAMTS-5; 1 μM): 1 μM 88%; MMP13 gene expression, percentage of inhibitory effect at the highest non toxic concentration (MMP13; 1 μM): 1 μM 94%; inhibition at 1 µM ([1]; Bos taurus, 1 μM, read-out: Bovine cartilage degradation induced by IL-1α, % inhibitory effect at max concentration): 97%; Inhibitory effect on the GAG release ([1]; at max concentration): 95-100% |
| Cc1nc(C#N)cc(Nc2cc(CCc3cc(NC(=O)c4cccc(S(=O)(=O)N(C)C)c4)ccc3C)n[nH]2)n1 [Compound 37, N-(3-(2-(5-((6-cyano-2-methylpyrimidin-4-yl)amino)-1H-pyrazol-3-yl)ethyl)-4-methylphenyl)-3-(N,N-dimethylsulfamoyl)benzamide] | 7.62 | 7.46 | 5.65 | – | – | >10 | >10 | 5.80 | 5.40 | – | – | 10 μM 97% | 10 μM 97% | – | 10 μM 59% | 10 μM 95% | 99 | – |
| Cc1ccc(NC(=O)c2ccnc(C(C)(C)C#N)c2)cc1CCc1cc(Nc2cnccn2)[nH]n1 [Compound 2, 2-(2-cyanopropan-2-yl)-N-(4-methyl-3-(2-(5-(pyrazin-2-ylamino)-1H-pyrazol-3-yl)ethyl)phenyl)isonicotinamide] | 8.00 | > 8.00 | 6.51 | – | – | >10 | >10 | – | – | – | 10 μM 100% | 10 μM 100% | 10 μM 100% | 10 μM 94% | 10 μM 92% | 10 μM 99% | – | IC50 ([1]; Bos taurus, head says nM, cells print μM, 48 h stimulation, read-out: Inhibitory effect on bovine cartilage degradation induced by IL-1α, IC50): 800 nM |
